{"source": "patent US20120010148A1", "about": "“COMBINATION THERAPIES USING NAP” (ALLON THERAPEUTICS INC., priority 2008, published 2012)", "key": {"[1]": {"test_system": "Human SH-SY5Y neuroblastoma", "test": "Clozapine-induced cell death in SH-SY5Y cells, MTS assay", "assay_type": "cell-based", "conditions": "clozapine 20 μg/ml, 24 hours, FIG. 1", "source_text": "Clozapine, a widely used anti psychotic drug may be associated with increased cell mortality. It was not known, however, whether NAP ([…], SEQ ID NO:2) treatment would inhibit clozapine associated neuronal death. To address this question and validate the efficiency of using a NAP-clozapine combination drug candidate, an experimental test system in cell culture was established (Heiser et al., Journal of Psychopharmacology 21(8):851-856 (2007)). Human SH-SY5Y neuroblastoma supplemented with 15% fetal calf serum (FCS) (Beit-Haemek, Israel), 1% penicillin-streptomycin, and 1% glutamine were incubated in a 5% CO2 atmosphere. Thirty-six thousand cells/well (in a 96 well plates) were plated 24 hours prior to the clozapine or NAP treatment. Clozapine (CLZ) was obtained from Sigma Chemicals (Sigma, Israel). Thirty-six thousand cells per well (in at least 6 replicate wells) were exposed to clozapine (CLZ, 20 μg/ml) or clozapine (CLZ, 20 μg/ml)+NAP or NAP alone (10^−15M-10^−10 M) for 24 hours at 37° C. Drug and control solutions were dissolved in ethanol. Measurement of metabolic activity and survival was determined by non-radioactive cell proliferation assay (MTS) (Promega, USA) and evaluated by an ELISA-reader at 490 nm wavelength."}, "STOP+/− male mice": {"test_system": "STOP+/− male mice", "test": "Mortality under chronic clozapine with or without intranasal NAP", "assay_type": "in vivo, mouse", "conditions": "clozapine 10 mg/kg IP daily, n=4", "method": "STOP+/− male mice (6 months old in average, n=4) received daily doses of 10 mg/kg intraperitoneal injection (IP) of clozapine (5 days a week), for the duration of the experiment (5 weeks). Clozapine (10 mg/kg) was solubilized under acidic conditions (pH ˜2.0 with HCl), and the solutions titrated back to ˜pH 7.4 with NaOH. In addition, these mice received daily intranasal vehicle solution that included the following ingredients (per milliliter): 7.5 mg of NaCl, 1.7 mg of citric acid monohydrate, 3 mg of disodium phosphate dihydrate, and 0.2 mg of benzalkonium chloride solution (50%) (Alcalay et al., Neurosci Lett 361, 128-131, 2004).\nA combination of clozapine with NAP experiment included an additional four mice (6 months old in average) that were injected with clozapine and administered with NAP intranasally in the vehicle delineated above (Alcalay et al., Neurosci Lett 361, 128-131, 2004). NAP or vehicle solution was administered daily to mice hand-held in a semi-supine position with nostrils facing the investigator. A pipette tip was used to administer 2.5 μl/nostril. The mouse was hand-held until the solution was totally absorbed (˜10 s).\nThe experiment continued for 5 weeks."}, "STOP−/− mice": {"test_system": "STOP−/− mice", "conditions": "STOP−/− schizophrenia model; cited from earlier work"}, "[2]": {"test_system": "neurons of the central nervous system", "conditions": "in vitro assays and in vivo disease models; cited from earlier work"}, "MS": {"test_system": "MS", "conditions": "daily subcutaneous injections, 20 mg/injection; cited from earlier work"}}, "note": "Ends that are not written are not given here.", "data": [{"compound": "CN1CCN(C2=Nc3cc(Cl)ccc3Nc3ccccc32)CC1", "note": "[clozapine, Clozapine]", "values": [{"measurement": "cell death", "setting": "[1]", "result": "about 60%"}, {"measurement": "death", "setting": "STOP+/− male mice; after 2.5 weeks of treatment", "result": 50, "unit": "%"}, {"measurement": "death (cumulative)", "setting": "STOP+/− male mice; at ~4.5 weeks", "result": 75, "unit": "%"}]}, {"compound": "C/C1=C/C[C@@H](/C(C)=C/c2csc(C)n2)OC(=O)C[C@H](O)C(C)(C)C(=O)[C@H](C)[C@@H](O)[C@@H](C)CCC1", "note": "[epothilone D]", "values": [{"measurement": "synaptic function and behavior", "setting": "STOP−/− mice", "result": "ameliorates synaptic function and behavior"}]}, {"compound": "SALLRSIPA", "values": [{"measurement": "survival of neurons in response to various insults", "setting": "[2]", "result": "keep neurons of the central nervous system alive"}]}, {"compound": "glatiramer acetate", "values": [{"measurement": "relapse rates, progression of disability, new MRI lesions", "setting": "MS", "result": "reduce relapse rates, progression of disability, appearance of new lesions"}]}]}
